Measured values taken from patent publication US20250034182A1, “PHOSPHOLIPID COMPOUNDS AND METHODS OF MAKING AND USING THE SAME” (priority 2021, published 2025).

Columns and labels:
Assay type in all cases: cell-based
[1] = tested on: Recombinant Respiratory Syncytial virus strain A2 containing the firefly luciferase reporter (RSV-Fluc) in NHBE cells; assay: RSV NHBE FLuc EC50 (Example I); details: human respiratory syncytial virus, 72 h, read-out: RSV NHBE FLuc EC50 (nM) (per Ex. I)
Text: Normal human bronchial epithelial (NHBE) cells are purchased from Lonza (Walkersville, MD Cat #CC-2540) and maintained in Bronchial Epithelial Cell Growth Medium (BEGM) (Lonza, Walkersville, MD, Cat #CC-3170) with all provided supplements in the BulletKit. Cells are passaged 2-3 times per week to maintain sub-confluent densities and are used for experiments at passages 2-4.
Recombinant Respiratory Syncytial virus strain A2 containing the firefly luciferase reporter between the P and M genes (RSV-Fluc, 6.3×10^6 TCID50/mL) is purchased from Viratree (Durham, NC, Cat #R^145).
NHBE cells (5×10^3/well) are seeded in 100 μL white wall/clear bottom 96-well plates (Corning) with culture medium and are incubated for 24 hours at 37° C. with 5% CO2. On the following day, three-fold serial dilutions of compounds prepared in DMSO are added to the wells using the HP D300e digital dispenser with normalization to the highest concentration of DMSO in all wells. The cells are then infected with RSV-Fluc diluted with BEGM media at an MOI of 0.1 for a final volume of 200 μL media/well. Uninfected and untreated wells are included as controls to determine compound efficacy against RSV-Fluc. Following incubation with compound and virus for three days at 37° C. with 5% CO2, 100 μL of culture supernatant is removed from each well and replaced with 100 μL of ONE-Glo luciferase reagent (Promega, Madison, WI, Cat #E6110). The plates are gently mixed by rocking for 10 minutes at 21° C. and luminescence signal is measured using an Envision plate reader (PerkinElmer). Values are normalized to the uninfected and infected DMSO controls (0% and 100% infection, respectively). Non-linear regression analysis is applied to determine the compound concentration at which 50% luminescence signal is reduced (EC50) using the XLfit4 add-in for MICROSOFT®EXCEL®. All experiments are performed in duplicate with two technical repeats each.

[2] = tested on: Respiratory syncytial virus recombinant with luciferase (RSV-Luc5) in NHBE cells; assay: NHBE RSV-Luc5 384-well assay (EC50 RSVFLUC NHBE-384, Example U); details: human respiratory syncytial virus, 72 h, read-out: RSV FLuc NHBE 384 EC50 (v2) (nM) (per Ex. U)
Protocol: Normal Human Bronchial Epithelial (NHBE) cells were purchased from Lonza (Walkersville, MD Cat #CC2540) and maintained in BEGM Bronchial Epithelial Cell (Growth Medium BulletKit (Lonza CC-3170).
Cells were thawed, expanded, and were used for experiments at passage 2. Respiratory syncytial virus recombinant with luciferase (RSV-Luc5) (≥1×10^7 Infectious Units/ml (IU/ml) determined by TCID50) was purchased from Microbiologics (Saint Cloud, MN). Viral replication was determined in NHBE cells in the following manner.
(§1) Compounds are prepared in 100% DMSO in 384-well polypropylene plates (Greiner, Monroe, NC, Cat #784201) with 8 compounds per plate in grouped replicates of 4 at 10 serially diluted concentrations (1:3). The serially diluted compounds were transferred to low dead volume Echo plates (Labcyte, Sunnyvale, CA, Cat #LP-0200).
The test compounds were spotted to 384-well assay plates (Greiner, Monroe, NC, Cat #781091) at 200 nL per well. NHBE cells were harvested and suspended in BEGM Bronchial Epithelial Cell Growth Medium BulletKit and seeded to the pre-spotted assay plates at 5,000 cells per well in 30 μL. RSV-Luc5 virus was diluted in BEGM Bronchial Epithelial Cell Growth Medium BulletKit at 500,000 Infectious Units (IU) per mL and 10 μL per well was added to the assay plates containing cells and compounds, for an MOI of 1. The assay plates were incubated for 3 days at 37° C. and 5% CO2. At the end of incubation, One-Glo reagent (Promega, Madison, WI, Cat #E6120) was prepared. The assay plates and One-Glo reagent were equilibrated to room temperature for at least 15 minutes. 40 μL per well of One-Glo reagent was added and the plates were incubated at room temperature for 15 minutes before reading the luminescence signal on an EnVision multimode plate reader (Perkin Elmer, Waltham, MA). Remdesivir was used as positive control and DMSO was used as negative control. Values were normalized to the positive and negative controls (as 0% and 100% replication, respectively) and data was fitted using non-linear regression analysis by Gilead's dose response tool. The EC50 value for each compound was defined as the concentration reducing the viral replication by 50%.

[3] = RSV NHBE CC50 384 V2 (per Ex. U); details: human
[4] = tested on: Respiratory syncytial virus recombinant with luciferase (RSV-Luc5) in HEp-2 cells; assay: HEp-2 RSV-Luc5 384-well assay (EC50 RSVFLUC Hep2-384 v2, Example V); details: human respiratory syncytial virus, HEp-2, 72 h, read-out: RSV Hep-2 FLuc EC50 (v2) (nM) (per Ex. V)
Text: HEp-2 cell line was purchased from ATCC (Manassas, VA Cat #CCL-23) and maintained in Dulbecco's […] (DMEM) (Corning, New York, NY, Cat #15-018CM) supplemented with 10% fetal bovine serum (FBS) (Hyclone, Logan, UT, Cat #SH30071-03) and 1× Penicillin-Streptonycin-L-Glutamine (Corning, New York, NY, Cat #30-009-CI). Cells were passaged 2 times per week to maintain sub-confluent densities and were used for experiments at passage 5-20. Respiratory syncytial virus recombinant with luciferase (RSV-Luc5) (≥1×107 TCID50/ml) was purchased from Microbiologics (Saint Cloud, MN). Viral replication was determined in HEp-2 cells in the following manner.
as §1
The test compounds were spotted to 384-well assay plates (Greiner, Monroe, NC, Cat #781091) at 200 nL per well. HEp-2 cells were harvested and suspended in DMEM (supplemented with 10% FBS and 1× Penicillin-Streptomycin-L-Glutamine) and seeded to the pre-spotted assay plates at 4,000 cells per well in 30 μL. RSV-Luc5 viruses were diluted in DMEM (supplemented with 10% FBS and 1× Penicillin-Streptomycin-L-Glucamine) at 200,000 Infectious Units (IU) per mL and 10 μL per well was added to the assay plates containing cells and compounds, for an MOI=0.5. The assay plates were incubated for 3 days at 37° C. and 5% CO2. At the end of incubation, One-Glo reagent (Promega, Madison, WI, Cat #E6120) was prepared. The assay plates and One-Glo reagent were equilibrated to room temperature for at least 15 minutes. 40 μL per well of One-Glo reagent was added and the plates were incubated at room temp for 15 minutes before reading the luminescence signal on an EnVision multimode plate reader (Perkin Elmer, Waltham, MA). Remdesivir was used as positive control and DMSO was used as negative control. Values were normalized to the positive and negative controls (as 0% and 100% replication, respectively) and data was fitted using non-linear regression analysis by Gilead's dose response tool. The EC50 value for each compound was then determined as the concentration reducing the viral replication by 50%.

[5] = tested on: dengue virus type 2 in Huh7 hepatoblastoma cells; assay: Dengue Virus-2 Huh-7 EC50 (Example W); details: MOI of 0.07, CPE, neutral red dye, read-out: Dengue Virus-2 Huh-7 EC50 (nM) (per Ex. W)
Protocol: (§2) Huh7 hepatoblastoma cells were seeded onto 96-well plates and incubated at 37° C. with 5% CO2 overnight. The plates were seeded at a cell concentration that will yield >70% confluent monolayers in each well after overnight incubation. Eight 3-fold serial dilutions of compounds were diluted in test media (MEM supplemented with 2% FBS and 50 μg/mL gentamicin). The highest test compound concentration was 50 μg/mL. 100 μL of each concentration was added to 5 test wells on the 96-well plate. Of these 5 test wells, 3 wells of each dilution were infected with dengue virus type 2, diluted in test media (approximately 2000 CCID50 per well for an MOI of 0.07). Test medium (100 μL) with no virus was added to 2 wells to represent the uninfected cytotoxicity controls. Six additional infected wells received 100 μL media alone as untreated virus controls. Further, 100 μL of media alone was added to 6 uninfected wells to serve as uninfected, untreated controls. Cultures were incubated at 37° C.+5% CO2 until >80% CPE is observed. After cytopathic effect (CPE) is observed microscopically, 0.011% neutral red dye was added for approximately 2 hours. The neutral red dye was removed and wells were rinsed once with PBS to remove residual, unincorporated dye. A 50:50 Sorensen citrate buffer/ethanol solution was added and incubated at room temperature for >30 minutes with agitation, followed by measurement of neutral red dye using a spectrophotometer at 540 nm. The resulting optical density measurement was converted to percent signal of the infected, untreated cell control normalizing to virus controls. EC50 and CC50 values were determined by linear regression analysis.

in vitro = details: human
Protocol: as §2

[6] = RSV HEP2-CC50-384-V2 (per Ex. V); details: human
[7] = tested on: Human Rhinovirus 14 (HRV14) in H1-HeLa cells; assay: H1-HeLa HRV-CTG EC50, HRV14 (Example Z); details: Rhinovirus B, HRV14, 96 h, MOI 1.0, 4 days, Celltiter-Glo, read-out: HRV14 HELA EC50 (nM) (per Ex. Z)
Text: (§3) H1-Hela cell line (ATCC, Manassas, VA, Cat #CRL-1958) was maintained in Dulbecco's […] (DMEM) (Corning, New York, NY, Cat #15-018CM) supplemented with 10% fetal bovine serum (FBS) (Hyclone, Logan, UT, Cat #SH30071-03), and 1× Penicillin-Streptomycin-L-Glutamine (Coming, New York, NY, Cat #30-009-C1). Cells were passaged 2 times per week to maintain sub-confluent densities and were used for experiments at passage 5-30. The Human Rhinovirus 1B (HRV1B) (ATCC, Manassas, VA, Cat #VR-1645), Human Rhinovirus 14 (HRV14) (ATCC, Manassas, VA, Cat #VR-284), and Human Rhinovirus 16 (HRV16) (ATCC, Manassas, VA, Cat #BR-283) was obtained through ATCC. Viral infection was monitored by determining viability of H1-HeLa cells as described below.
as §1, with “Test molecules” for “Compounds”
(§4) The test compounds were spotted to 384-well assay plates (Greiner, Monroe, NC, Cat #781091) at 200 nL per well using an Echo acoustic dispenser (Labcyte, Sunnyvale, CA). H1-HeLa cells were harvested and suspended in DMEM (supplemented with 2% FBS and 1× Penicillin-Streptomycin-L-Glutamine) and seeded to the pre-spotted assay plates at 5,000 cells per well in 30 μL. HRV1B, HRV14, and HRV16 was diluted in DMEM (supplemented with 2% FBS and 1× Penicillin-Streptomycin-L-Glutamine) at 97.1 million Infectious Units (IU) per mL, 151 million IU per mL and 221 million IU per mL respectively. 10 μL of virus per well was added to the assay plates containing cells and compounds, for an MOI of 0.5, 1.0, and 0.25 respectively. The assay plates were incubated for 4 days at 37° C. and 5% CO2. At the end of incubation, Celltiter-Glo (Promega, Madison, WI, Cat #G7573) was prepared. The assay plates and Celltiter-Glo reagent were equilibrated to room temperature for at least 15 minutes. 40 μL per well of Celltiter-Glo reagent was added and the plates were incubated at room temperature for 15 minutes before reading the luminescence signal on an EnVision multimode plate reader (Perkin Elmer, Waltham, MA). Rupintrivir was used as positive control and DMSO was used as negative control. Values were normalized to the positive and negative controls (as 0% and 100% replication, respectively) and data was fitted using non-linear regression analysis by Gilead's dose response tool. The EC50 value for each compound was defined as the concentration reducing viral replication by 50%.

[8] = tested on: Human Rhinovirus 16 (HRV16) in H1-HeLa cells; assay: H1-HeLa HRV-CTG EC50, HRV16 (Example Z); details: Rhinovirus A, HRV16, 96 h, MOI 0.25, 4 days, Celltiter-Glo, read-out: HRV 16 HELA EC50 (nM) (per Ex. Z)
Text: as §3
as §1, with “Test molecules” for “Compounds”
as §4

[9] = tested on: Human Rhinovirus 1B (HRV1B) in H1-HeLa cells; assay: H1-HeLa HRV-CTG EC50, HRV1B (Example Z); details: Rhinovirus A, 96 h, MOI 0.5, 4 days, Celltiter-Glo, read-out: HRV 1B HELA EC50 (nM) (per Ex. Z)
Text: as §3
as §1, with “Test molecules” for “Compounds”
as §4

| Structure (SMILES) | EC50 [1] [nM] | EC50 [2] [nM] | CC50 at 3 days [3] [nM] | EC50 [4] [nM] | EC50 [5] [nM] | CC50 (in vitro) [nM] | CC50 at 3 days [6] [nM] | EC50 [7] [nM] | EC50 [8] [nM] | EC50 [9] [nM] |
| --- | --- | --- | --- | --- | --- | --- | --- | --- | --- | --- |
| CCCCCCCCCCCCCCCCCCC[C@@H](COP(=O)(O)OC[C@@]1(C#N)O[C@@H](c2ccc3c(N)ncnn23)[C@H](O)[C@@H]1O)OCc1cc(F)cc(C#N)c1 [Compound 31, ((2R,3S,4R)-5-(4-aminopyrrolo[2,1-f][1,2,4]triazin-7-yl)-2-cyano-3,4-dihydroxytetrahydrofuran-2-yl)methyl ((S)-2-((3-cyano-5-fluorobenzyl)oxy)henicosyl) hydrogen phosphate] | 229 | 134 | 1900 | – | – | – | – | – | – | – |
| CCCCCCCCCCCCCCOC[C@H](COP(=O)(O)OC[C@@]1(C#N)O[C@@H](c2ccc3c(N)ncnn23)[C@H](O)[C@@H]1O)Oc1ccc(C#N)cn1 [Compound 71] | 199 | – | – | 2580 | 33000 | > 50000 | > 50000 | – | – | – |
| CCCCCCCCCCCCCCCOC[C@H](COP(=O)(O)OC[C@@]1(C#N)O[C@@H](c2ccc3c(N)ncnn23)[C@H](O)[C@@H]1O)OCc1cc(F)cc(C#N)c1 [Compound 99, ((2R,3S,4R,5S)-5-(4-aminopyrrolo[2,1-f][1,2,4]triazin-7-yl)-2-cyano-3,4-dihydroxytetrahydrofuran-2-yl)methyl ((R)-2-((3-cyano-5-fluorobenzyl)oxy)-3-(pentadecyloxy)propyl) hydrogen phosphate] | – | 47 | 1140 | 166 | – | – | 42300 | 37 | 33 | 19 |
